From US20210290553A1, “HC-1119 FORMULATION, PREPARATION METHOD AND USE THEREOF” (HINOVA PHARMACEUTICALS INC., priority 2018, published 2021)
Read-outs that look alike come from different tables or passages of the source.

How the values were obtained:
[1] = 160 mg QD 49 days, cited from earlier work
[2] = Clinical pharmacokinetic test of HC-1119 soft capsule; type: in vivo; settings: human, plasma, oral, HC-1119 80 mg, day 84
Procedure: (1) Dosage: 80 mg/day (2 soft capsules of 40 mg)
(2) Administration way: continuous administration, once a day, the first administration being orally taken with empty stomach, thereafter no restriction on diet.
In the pharmacokinetic study, 9 subjects participated in this study.
The drug was taken by the subjects with empty stomach on the first day of the test, and 0˜0.5 h before taking the drug as well as 0.5 h, 0.75 h, 1 h, 2 h (±5 min), 4 h, 8 h, 12 h (±15 min), 24 h (±30 min) before administration on the second day), blood samples were collected, and 3 mL venous blood was drawn at each time point, then placed in an anticoagulant tube (the type of anticoagulant was determined according to the established analytical method).
0˜0.5 h before administration on day 7, 21, 35, 42, 56, 70, and 84 of continuous dosing, as well as 0.5 h, 0.75 h, 1 h, 2 h (±5 min), 4 h, 8 h, 12 h (±15 min), 24 h (±30 min, before administration on day 85) after administration on day 84, 3 mL venous blood was collected at each time point and placed in an anticoagulant tube (the type of anticoagulant was determined according to the established analytical method).
The sample should be centrifuged as soon as possible (about 3000 rpm, 10 min) to separate the plasma. The separated plasma samples need to be stored in two parts in a plasma cryotube. […]

[3] = Physical and chemical properties: solubility in water; type: physicochemical
Text: (§1) Therefore, HC-1119 is an insoluble drug with high permeability, and belongs to the second category of BSC classification, and thus it is extremely important to improve the bioavailability thereof.

[4] = Permeability evaluated by Caco-2 cell model; type: in vitro ADME; settings: human; 10 μM HC-1119, Caco-2 cell model; read-out: apparent permeability coefficient
Text: as §1

| AUC at 84 day ([2]; read-out: steady-state AUC on day 84) [µg·h/mL] | concentration at 84 day ([2]; read-out: steady-state Ctrough on day 84) [ng/mL] | solubility in water [3] | Papp at 10 μM [4] [×10⁻⁶ cm/s] | SMILES | AUCtau ([1]; Median) [µg·h/mL] | CL/F ([1]; Median) [L/h] | Cmax ([1]; Median) [ng/mL] | Cmin ([1]; Median) [ng/mL] | tmax ([1]; Median) [min] | AUCtau ([1]; Min-Max) [µg·h/mL] | Cmax ([1]; Min-Max) [ng/mL] | Cmin ([1]; Min-Max) [ng/mL] | tmax ([1]; Min-Max) [min] | AUCtau ([1]; mean values) [µg·h/mL] | CL/F ([1]; mean values) [L/h] | Cmax ([1]; mean values) [ng/mL] | Cmin ([1]; mean values) [ng/mL] | Cmin ([1]; mean values, listed as enzalutamide) [ng/mL] |
| --- | --- | --- | --- | --- | --- | --- | --- | --- | --- | --- | --- | --- | --- | --- | --- | --- | --- | --- |
| – | – | – | – | CNC(=O)c1ccc(N2C(=S)N(c3ccc(C#N)c(C(F)(F)F)c3)C(=O)C2(C)C)cc1F [Enzalutamide, enzalutamide] | 295.6 | 0.541 | 15550 | 11450 | 61.2 | 240 to 593 | 11800 to 28000 | 6920 to 22400 | 31.2 to 181 | 321.5 | 0.520 | 16590 | 12000 | 12000 |
| 480 | 18900 | difficult to dissolve in water | 11.4 to 13.6 | [2H]C([2H])([2H])NC(=O)c1ccc(N2C(=S)N(c3ccc(C#N)c(C(F)(F)F)c3)C(=O)C2(C)C)cc1F [HC-1119, 4-{3-[4-cyano-3-(trifluoromethyl)phenyl]-5,5-dimethyl-4-oxo-2-thio-1-imidazolidinyl}-2-fluoro-N-trideuteromethylbenzamide] | – | – | – | – | – | – | – | – | – | – | – | – | – | – |
